From patent US5543415A, “Antidepressants” (Kyowa Hakko Kogyo Co., Ltd., priority 1992, dated 1996)
Like-named read-outs stand apart in the source and are kept apart here.

Experiments:
ddY-strain male mice = assay: Acute Toxicity Test (minimum lethal dose, oral); format: in vivo; details: seven days after administration
Method: Test compounds were orally administered to groups of ddY-strain male mice weighing 20±1 g, each group consisting of three mice. Seven days after the administration, minimum lethal dose (MLD) of each compound was determined by observing the mortality.

[1] = system: clonidine-induced aggressive behavior; assay: Effect on Clonidine-Induced Aggressive Behavior (number of biting attacks during 30 minutes); format: in vivo, male ddY mice; details: po; for Number of the Biting Attacks (mean ± S.E.M.), Test Compound-Treated Group: 60 min before clonidine 20 mg/kg ip, 30 min count
Method: The effect of a test compound on the aggressive behavior induced by intraperitoneal administration of clonidine was investigated. […] The experiment was performed by using several groups of male ddY mice (weighing 20 to 25 g, Japan SLC), each group consisting of two mice. The test compound was suspended in injectable distilled water (Otsuka Pharmaceutical Co., Ltd.) containing Tween 80 [polyoxyethylene (20) sorbitan monooleate]. Clonidine hydrochloride (Sigma Co.) was dissolved in physiological saline solution (Otsuka Pharmaceutical Co., Ltd.). The test compound suspension and the control suspension were orally administered to separate groups of the mice (0.1 ml per 10 g of body weight). Sixty minutes after the oral administration of the test compound, clonidine hydrochloride (20 mg/kg) was intraperitoneally injected. The number of biting attacks during 30 minutes after clonidine treatment was counted. The effect of the compound was evaluated by comparing the average number of biting attacks of the test compound-administered groups with that of control groups (Statistical comparison: Student's t-test).

[2] = Mus musculus, 2.5 mg/kg, read-out: Number of the Attacks of Test Compound-Treated Group/Number of the Attacks of Control Group
[3] = Mus musculus, 10 mg/kg, read-out: Number of the Attacks of Test Compound-Treated Group/Number of the Attacks of Control Group
[4] = Mus musculus, 0.63 mg/kg, read-out: Number of the Attacks of Test Compound-Treated Group/Number of the Attacks of Control Group

CCCn1c(=O)c2c(nc(/C=C/c3ccc(OC)c(OC)c3)n2C)n(CCC)c1=O [Compound 1, (E)-8-(3,4-Dimethoxystyryl)-7-methyl-1,3-dipropylxanthine]
MLD (minimum lethal dose) (ddY-strain male mice): > 300 mg/kg
Number of the Biting Attacks (mean ± S.E.M.), Test Compound-Treated Group ([1]; 2.5 mg/kg): 27.5 ± 7.3
response vs control in vivo at 2.5 mg/kg [1, 2]: 480%

COc1cc(/C=C/c2nc3c(c(=O)n(C)c(=O)n3C)n2C)cc(OC)c1OC [Compound 2, (E)-8-(3,4,5-trimethoxystyryl)caffeine]
MLD (minimum lethal dose) (ddY-strain male mice): > 300 mg/kg
Number of the Biting Attacks (mean ± S.E.M.), Test Compound-Treated Group ([1]; 1.25 mg/kg): 29.0 ± 7.9
response vs control in vivo at 1.25 mg/kg ([1]; Mus musculus, 1.25 mg/kg, read-out: Number of the Attacks of Test Compound-Treated Group/Number of the Attacks of Control Group): 470%

CCCn1c(=O)c2c(nc(/C=C/c3ccccc3)n2C)n(CCC)c1=O [Compound 3, (E)-7-Methyl-1,3-dipropyl-8-styrylxanthine]
MLD (minimum lethal dose) (ddY-strain male mice): > 300 mg/kg
Number of the Biting Attacks (mean ± S.E.M.), Test Compound-Treated Group ([1]; 10 mg/kg): 26.1 ± 5.42
response vs control in vivo at 10 mg/kg [1, 3]: 340%

CCn1c(=O)c2c(nc(/C=C/c3cc(OC)c(OC)c(OC)c3)n2C)n(CC)c1=O [Compound 4, (E)-1,3-diethyl-7-methyl-8-(3,4,5-trimethoxystyryl)xanthine]
MLD (minimum lethal dose) (ddY-strain male mice): > 300 mg/kg
Number of the Biting Attacks (mean ± S.E.M.), Test Compound-Treated Group ([1]; 0.63 mg/kg): 25.3 ± 4.51
Number of the Biting Attacks (mean ± S.E.M.), Test Compound-Treated Group ([1]; 2.5 mg/kg): 36.9 ± 7.81
Number of the Biting Attacks (mean ± S.E.M.), Test Compound-Treated Group ([1]; 10 mg/kg): 51.3 ± 9.37
response vs control in vivo at 0.63 mg/kg [1, 4]: 970%
response vs control in vivo at 2.5 mg/kg [1, 2]: 540%

CCCn1c(=O)c2c(nc(/C=C/c3cc(OC)c(OC)c(OC)c3)n2C)n(CCC)c1=O [Compound 5, (E)-7-Methyl-1,3-dipropyl-8-(3,4,5-trimethoxystyryl)xanthine]
MLD (minimum lethal dose) (ddY-strain male mice): > 300 mg/kg
Number of the Biting Attacks (mean ± S.E.M.), Test Compound-Treated Group ([1]; 5 mg/kg): 25.4 ± 7.71
response vs control in vivo at 5 mg/kg ([1]; Mus musculus, 5 mg/kg, read-out: Number of the Attacks of Test Compound-Treated Group/Number of the Attacks of Control Group): 350%

CCCn1c(=O)c2c(nc(/C=C/c3ccc(OC)cc3)n2C)n(CCC)c1=O [Compound 6, (E)-8-(4-Methoxystyryl)-7-methyl-1,3-dipropylxanthine]
MLD (minimum lethal dose) (ddY-strain male mice): > 300 mg/kg
Number of the Biting Attacks (mean ± S.E.M.), Test Compound-Treated Group ([1]; 10 mg/kg): 83.7 ± 10.95

C=CCn1c(=O)c2c(nc(/C=C/c3cc(OC)c(OC)c(OC)c3)n2C)n(CC=C)c1=O [Compound 7, (E)-1,3-Diallyl-7-methyl-8-(3,4,5-trimethoxystyryl)xanthine]
MLD (minimum lethal dose) (ddY-strain male mice): > 300 mg/kg
Number of the Biting Attacks (mean ± S.E.M.), Test Compound-Treated Group ([1]; 2.5 mg/kg): 40.1 ± 8.36
response vs control in vivo at 2.5 mg/kg [1, 2]: 640%

CCCn1c(=O)c2c(nc(/C=C/c3ccc(OC)c(C)c3C)n2C)n(CCC)c1=O [Compound 14, (E)-8-(4-Methoxy-2,3-dimethylstyryl)-7-methyl-1,3-dipropylxanthine]
MLD (minimum lethal dose) (ddY-strain male mice): > 300 mg/kg
Number of the Biting Attacks (mean ± S.E.M.), Test Compound-Treated Group ([1]; 2.5 mg/kg): 40.7 ± 8.50
response vs control in vivo at 2.5 mg/kg [1, 2]: 730%

CCCn1c(=O)c2c(nc(/C=C/c3ccc4c(c3)OCCO4)n2C)n(CCC)c1=O [Compound 18, (E)-8-[2-(1,4-Benzodioxan-6-yl)vinyl]-7-methyl-1,3-dipropylxanthine]
MLD (minimum lethal dose) (ddY-strain male mice): > 300 mg/kg
Number of the Biting Attacks (mean ± S.E.M.), Test Compound-Treated Group ([1]; 2.5 mg/kg): 8.6 ± 3.74
Number of the Biting Attacks (mean ± S.E.M.), Test Compound-Treated Group ([1]; 10 mg/kg): 26.2 ± 7.32
response vs control in vivo at 2.5 mg/kg [1, 2]: 390%
response vs control in vivo at 10 mg/kg [1, 3]: 640%

CCCn1c(=O)c2c(nc(/C=C/c3ccc(OC)c(OC)c3OC)n2C)n(CCC)c1=O [Compound 22, (E)-7-Methyl-1,3-dipropyl-8-(2,3,4-trimethoxystyryl)xanthine]
MLD (minimum lethal dose) (ddY-strain male mice): > 300 mg/kg
Number of the Biting Attacks (mean ± S.E.M.), Test Compound-Treated Group ([1]; 10 mg/kg): 33.1 ± 5.18
response vs control in vivo at 10 mg/kg [1, 3]: 680%

CCCn1c(=O)c2c(nc(/C=C/c3ccc(OCC)cc3)n2C)n(CCC)c1=O [Compound 49, (E)-8-(4-Ethoxystyryl)-7-methyl-1,3-dipropylxanthine]
MLD (minimum lethal dose) (ddY-strain male mice): > 300 mg/kg
Number of the Biting Attacks (mean ± S.E.M.), Test Compound-Treated Group ([1]; 10 mg/kg): 81.5 ± 13.97

C=CCn1c(=O)c2c(nc(/C=C/c3ccc(OC)c(OC)c3)n2C)n(CC=C)c1=O [Compound 70, (E)-1,3-Diallyl-8-(3,4-dimethoxystyryl)-7-methylxanthine]
MLD (minimum lethal dose) (ddY-strain male mice): > 100 mg/kg
Number of the Biting Attacks (mean ± S.E.M.), Test Compound-Treated Group ([1]; 10 mg/kg): 60.3 ± 11.71
response vs control in vivo at 10 mg/kg [1, 3]: 790%

CCn1c(=O)c2c(nc(/C=C/c3ccc(OC)c(OC)c3)n2C)n(CC)c1=O [Compound 74, (E)-8-(3,4-Dimethoxystyryl)-1,3-diethyl-7-methylxanthine]
MLD (minimum lethal dose) (ddY-strain male mice): > 300 mg/kg
Number of the Biting Attacks (mean ± S.E.M.), Test Compound-Treated Group ([1]; 0.63 mg/kg): 23.2 ± 5.19
Number of the Biting Attacks (mean ± S.E.M.), Test Compound-Treated Group ([1]; 2.5 mg/kg): 51.3 ± 8.70
Number of the Biting Attacks (mean ± S.E.M.), Test Compound-Treated Group ([1]; 10 mg/kg): 73.3 ± 8.75
response vs control in vivo at 0.63 mg/kg [1, 4]: 380%
response vs control in vivo at 2.5 mg/kg [1, 2]: 840%

CCn1c(=O)c2c(nc(/C=C/c3ccc(OC)cc3OC)n2C)n(CC)c1=O [Compound 78, (E)-8-(2,4-Dimethoxystyryl)-1,3-diethyl-7-methylxanthine]
MLD (minimum lethal dose) (ddY-strain male mice): > 300 mg/kg
Number of the Biting Attacks (mean ± S.E.M.), Test Compound-Treated Group ([1]; 10 mg/kg): 32.1 ± 7.31
response vs control in vivo at 10 mg/kg [1, 3]: 610%

CCn1c(=O)c2c(nc(/C=C/c3ccc(OC)c(OC)c3OC)n2C)n(CC)c1=O [Compound 80, (E)-1,3-Diethyl-7-methyl-8-(2,3,4-trimethoxystyryl)xanthine]
MLD (minimum lethal dose) (ddY-strain male mice): > 300 mg/kg
Number of the Biting Attacks (mean ± S.E.M.), Test Compound-Treated Group ([1]; 0.63 mg/kg): 30.3 ± 7.00
Number of the Biting Attacks (mean ± S.E.M.), Test Compound-Treated Group ([1]; 2.5 mg/kg): 59.3 ± 12.37
Number of the Biting Attacks (mean ± S.E.M.), Test Compound-Treated Group ([1]; 10 mg/kg): 67.5 ± 9.35
response vs control in vivo at 0.63 mg/kg [1, 4]: 470%

CCn1c(=O)c2c(nc(/C=C/c3ccc(OC)c(C)c3C)n2C)n(CC)c1=O [Compound 82, (E)-1,3-Diethyl-8-(4-methoxy-2,3-dimethylstyryl)-7-methylxanthine]
MLD (minimum lethal dose) (ddY-strain male mice): > 300 mg/kg
Number of the Biting Attacks (mean ± S.E.M.), Test Compound-Treated Group ([1]; 2.5 mg/kg): 59.0 ± 13.31
Number of the Biting Attacks (mean ± S.E.M.), Test Compound-Treated Group ([1]; 10 mg/kg): 61.8 ± 11.89
response vs control in vivo at 2.5 mg/kg ([1]; Mus musculus, read-out: Number of the Attacks of Test Compound-Treated Group/Number of the Attacks of Control Group): 910%
response vs control in vivo at 10 mg/kg [1, 3]: 800%

CCn1c(=O)c2c(nc(/C=C/c3ccc(OC)c(Br)c3)n2C)n(CC)c1=O [Compound 114, (E)-8-(3-Bromo-4-methoxystyryl)-1,3-diethyl-7-methylxanthine]
MLD (minimum lethal dose) (ddY-strain male mice): > 100 mg/kg
Number of the Biting Attacks (mean ± S.E.M.), Test Compound-Treated Group ([1]; 10 mg/kg): 37.8 ± 8.66

CCOc1ccc(/C=C/c2nc3c(c(=O)n(CC)c(=O)n3CC)n2C)cc1 [Compound 124, (E)-8-(4-Ethoxystyryl)-1,3-diethyl-7-methylxanthine]
MLD (minimum lethal dose) (ddY-strain male mice): > 300 mg/kg
Number of the Biting Attacks (mean ± S.E.M.), Test Compound-Treated Group ([1]; 2.5 mg/kg): 85.8 ± 12.41
Number of the Biting Attacks (mean ± S.E.M.), Test Compound-Treated Group ([1]; 10 mg/kg): 50.5 ± 17.7

CCCOc1ccc(/C=C/c2nc3c(c(=O)n(CC)c(=O)n3CC)n2C)cc1 [Compound 126, (E)-1,3-Diethyl-7-methyl-8-(4-propoxystyryl)xanthine]
MLD (minimum lethal dose) (ddY-strain male mice): > 300 mg/kg
Number of the Biting Attacks (mean ± S.E.M.), Test Compound-Treated Group ([1]; 10 mg/kg): 80.0 ± 13.93

CCn1c(=O)c2c(nc(/C=C/c3cc(OC)cc(OC)c3)n2C)n(CC)c1=O [Compound 130, (E)-8-(3,5-Dimethoxystyryl)-1,3-diethyl-7-methyl-xanthine]
MLD (minimum lethal dose) (ddY-strain male mice): > 300 mg/kg
Number of the Biting Attacks (mean ± S.E.M.), Test Compound-Treated Group ([1]; 10 mg/kg): 52.2 ± 11.79
response vs control in vivo at 10 mg/kg [1, 3]: 480%

CCCCOc1ccc(/C=C/c2nc3c(c(=O)n(CC)c(=O)n3CC)n2C)cc1 [Compound 148, (E)-8-(4-Butoxystyryl)-1,3-diethyl-7-methylxanthine]
MLD (minimum lethal dose) (ddY-strain male mice): > 100 mg/kg
Number of the Biting Attacks (mean ± S.E.M.), Test Compound-Treated Group ([1]; 10 mg/kg): 46.3 ± 9.40

CCn1c(=O)c2c(nc(/C=C/c3ccc(F)cc3)n2C)n(CC)c1=O [Compound 150, (E)-1,3-Diethyl-8-(4-fluorostyryl)-7-methylxanthine]
MLD (minimum lethal dose) (ddY-strain male mice): > 100 mg/kg
Number of the Biting Attacks (mean ± S.E.M.), Test Compound-Treated Group ([1]; 10 mg/kg): 42.1 ± 10.18

CCn1c(=O)c2c(nc(/C=C/c3ccc(C)cc3)n2C)n(CC)c1=O [Compound 152, (E)-1,3-Diethyl-7-methyl-8-(4-methylstyryl)xanthine]
MLD (minimum lethal dose) (ddY-strain male mice): > 100 mg/kg
Number of the Biting Attacks (mean ± S.E.M.), Test Compound-Treated Group ([1]; 10 mg/kg): 82.6 ± 23.07
response vs control in vivo at 10 mg/kg [1, 3]: 670%

CCn1c(=O)c2c(nc(/C=C/c3cccc(Br)c3)n2C)n(CC)c1=O [Compound 162, (E)-8-(3-Bromostyryl)-1,3-diethyl-7-methylxanthine]
MLD (minimum lethal dose) (ddY-strain male mice): > 100 mg/kg
Number of the Biting Attacks (mean ± S.E.M.), Test Compound-Treated Group ([1]; 10 mg/kg): 17.9 ± 6.67
response vs control in vivo at 10 mg/kg [1, 3]: 850%
